Consider nine molecules from US7998971B2, “Combinations containing a 4-acylaminopyridine derivative” (BrainCells Inc., priority 2006, dated 2011).

pEC50: −log10 of the molar value. Read-outs that look alike come from different tables or passages of the source.

One experiment concerns mGlu7 and mGlu8. The settings on record: above 1 μM; cited from earlier work.
Experiment [1] concerns human neural stem cells (hNSCs). Nature of the experiment: Neuronal differentiation of human neural stem cells (TUJ-1 staining, concentration response curves). Type of experiment: cell-based. Particulars: for pEC50: Homo sapiens, Neural stem cell; for maximum neuronal differentiation percent of positive control: MKC-231 CRC 0.01-31.6 uM, azakenpaullone CRC 0.001-3.2 uM. The text has this:
Mitogen-free test media with a positive control for neuronal differentiation was used along with basal media without growth factors as a negative control. […]

For experiment [2], the target named is acetylcholinesterase (AChE) (Homo sapiens, UniProt P22303). Particulars: cited from earlier work.
Where [3] appears, read: agent alone, hNSCs, percentage of neuronal positive control, basal media subtracted, read-out: EC50 of neuronal differentiation, agent used alone.

In general, pEC50 refers to −log10 of the EC50, conventionally taken in molar units.

Sequence of acetylcholinesterase (AChE) (P22303 32-614, species assumed): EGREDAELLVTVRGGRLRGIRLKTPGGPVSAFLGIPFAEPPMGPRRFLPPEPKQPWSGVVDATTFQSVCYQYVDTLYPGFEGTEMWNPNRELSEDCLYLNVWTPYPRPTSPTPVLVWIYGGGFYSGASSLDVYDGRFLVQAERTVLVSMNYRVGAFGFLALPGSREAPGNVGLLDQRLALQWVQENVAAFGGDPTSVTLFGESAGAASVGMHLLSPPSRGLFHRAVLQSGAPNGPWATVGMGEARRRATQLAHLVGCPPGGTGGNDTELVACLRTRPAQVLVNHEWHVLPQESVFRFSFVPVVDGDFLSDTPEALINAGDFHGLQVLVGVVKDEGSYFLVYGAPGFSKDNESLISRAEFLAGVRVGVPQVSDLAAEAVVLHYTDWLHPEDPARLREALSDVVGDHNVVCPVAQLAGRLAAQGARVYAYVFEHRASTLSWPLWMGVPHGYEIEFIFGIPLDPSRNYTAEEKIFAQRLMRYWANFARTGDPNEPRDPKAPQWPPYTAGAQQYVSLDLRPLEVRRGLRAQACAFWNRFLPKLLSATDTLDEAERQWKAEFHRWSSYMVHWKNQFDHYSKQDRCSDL

With `N[C@](CC1c2ccccc2Oc2ccccc21)(C(=O)O)[C@H]1C[C@@H]1C(=O)O` [LY341495, (2S)-2-amino-2-(1S,2S-2-carboxycycloprop-1-yl)-3-(xanth-9-yl) propanoic acid], the “activity against mGlu7 and mGlu8 at higher concentrations” value in the experiment on mGlu7 and mGlu8 was “antagonist activity”. Regarding `Clc1ccc2c(c1)N=C(N1CCNCC1)c1ccccc1N2` [N-desmethylclozapine], the neurogenic activity entry in experiment [1] (assays as disclosed herein) is reported as “highly neurogenic”. Turning to `Cc1onc(O)c1CC(N)C(=O)O` (stereo not drawn) [AMPA, α-amino-3-hydroxy-5-methylisoxazole-4-propionic acid], in experiment [1] (AMPA alone at 0.316 μM), the “effect on differentiation at 0.316 μM” value is “no effect”. For the same molecule, in experiment [1] (read-out: EC50 of neuronal differentiation, agent used alone), the pEC50 is approximately 4.50. Regarding `Cc1oc2nc3c(c(NC(=O)CN4CCCC4=O)c2c1C)CCCC3` [MKC-231, 2-(2-oxopyrrolidin-1-yl)-N-(2,3-dimethyl-5,6,7,8-tetrahydrofuro[2,3-b]-quinolin-4-yl)acetoamide], in experiment [1] (setting [3]), the pEC50 was 5.07. Moreover, the “maximum neuronal differentiation percent of positive control” value in experiment [1] (hNSCs) is given as 53%. Further, the AChE inhibitory activity result in experiment [2] is reported as “does not have such inhibitory activity”. `CN(CCOc1ccc(CC2SC(=O)NC2=O)cc1)c1ccccn1` (stereo not drawn) [rosiglitazone]: the pEC50 in experiment [1] (setting [3]) is 5.44.

`CC(C)c1c(C(=O)Nc2ccccc2)c(-c2ccccc2)c(-c2ccc(F)cc2)n1CC[C@@H](O)C[C@@H](O)CC(=O)O` [atorvastatin]: in experiment [1] (setting [3]), the pEC50 is 8.52. With `O=C1Cc2c([nH]c3ccc(Br)cc23)-c2ncccc2N1` [azakenpaullone], in experiment [1] (hNSCs), the “maximum neuronal differentiation percent of positive control” value was 120%. On to `O=C1CC[C@@]2(O)[C@H]3Cc4ccc(O)c5c4[C@@]2(CCN3CC2CC2)[C@H]1O5` [naltrexone], for which the pEC50 in experiment [1] (setting [3]) is 5.35.

As to `C[C@]12CC[C@@H]3c4ccc(O)cc4CC[C@H]3[C@@H]1CC[C@@H]2O` [estradiol], the pEC50 in experiment [1] (agent alone, hNSCs, extrapolated, read-out: EC50 of neuronal differentiation, agent used alone, estimated by extrapolation of the observed data) is 5.36.
